Measurements reported in EP4745138A1, “THIO-GLUTARIMIDO ISOINDOLINONE DERIVATIVE, BIFUNCTIONAL PROTEIN DEGRADER CONTAINING SAME, AND USES THEREOF” (Gluetacs Therapeutics (Shanghai) Co., Ltd., priority 2023, dated 2025).
Read-outs that look alike come from different tables or passages of the source. Each block holds one molecule with its values, some of them ahead of it.

What was measured:
EGFR = test: Western blot, target protein degradation in H1975 Cell; assay type: cell-based, Human; settings: substrate protein remaining %, treated at 500 nM and 50 nM, 24 hours
Experimental: (§1) Conventional Western blot assay was performed to evaluate the effects of the compounds of the present disclosure on the expression of target proteins in cells.
(§2) (1) Cell Seeding and Protein Harvesting: The selected cells were processed according to the cell seeding procedure and protein harvesting procedure in Table II-2. Table II-2 Cell Seeding and Protein Harvesting Procedures
(§3) (2) To the collected supernatant, 5X SDS sample loading buffer was added, followed by denaturation at 95°C for 5 minutes. The denatured samples were then separated by SDS-PAGE electrophoresis on a polyacrylamide gel. Proteins were transferred to a nitrocellulose membrane (0.45 µm NC membrane), blocked with blocking buffer at room temperature for 1 hour, and subjected to antibody incubation and development procedures according to the antibody manufacturer's instructions (Cell Signaling Technology).
(§4) Half-Maximal Degradation Concentration value (the drug concentration required for degrading proteins by 50%, abbreviated as DC50) reads method: comparing the grayscale values of Western blot bands from drug-treated samples with those from blank DMSO-treated controls, and identifying the drug concentration range at which the grayscale value is half that of the DMSO-treated control bands.
(§5) DC50 values can be calculated using ImageJ software to measure grayscale values of Western blot bands from drug-treated samples. The concentration-response curve is fitted to estimate the drug concentration corresponding to half the grayscale value.
(§6) Target protein remaining (%) refers to the percentage of target protein remaining in cells after treatment with protein degrader compounds.
(§7) Calculation method for target protein remaining (%): Use ImageJ software to measure grayscale values of Western blot bands from drug (protein degrader)-treated samples. The grayscale value of drug-treated bands is divided by that of internal control protein bands, and the resulting quotient is normalized to obtain the relative percentage of remaining target protein after protein degrader treatment. Target protein degradation rate(%) = 1−target protein remaining(%). [formula]

RPMI-8226 = test: Tumor cell proliferation inhibition (CellTiter-Meiluncell Luminescent Cell Viability Assay); assay type: cell-based; settings: Homo sapiens, 96 hours; for inhibition at 0.01 µM: 10 nM, read-out: Inhibition Rate at 10 nM (%); for inhibition at 0.5 µM: 500 nM, read-out: Inhibition Rate at 500 nM (%)
How it was run: (§8)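 Following overnight seeding, tumor cells received serial compound dilutions to final levels that included 10 nM and 500 nM. Viability was assessed by luminescence at the end of the specified exposure time. Cultures were kept at 37°C with 5% CO2.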

MV-4-11 = test: as above; assay type: cell-based; settings: Homo sapiens, 96 hours; for inhibition at 0.01 µM: MV4-11, 10 nM, read-out: Inhibition Rate at 10 nM (%); for inhibition at 0.5 µM: MV4-11, 500 nM, read-out: Inhibition Rate at 500 nM (%)
How it was run: as §8

[1] = target: T1, human Cereblon WT GST-tagged protein (Homo sapiens, UniProt Q96SW2); test: CRBN-binding affinity, HTRF (CEREBLON BINDING kit); settings: for inhibition at 0.5 µM: read-out: Inhibition Rate at 0.5 µM (%); for inhibition at 2 µM: read-out: Inhibition Rate at 2 µM (%)
T1 construct: purchased CISBIO 64BDCRBNPEH
How it was run: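 Readout is homogeneous time-resolved fluorescence, measuring displacement of a thalidomide-red tracer from GST-tagged Cereblon detected by a europium anti-GST antibody. Compounds were tested at final 2 µM and 0.5 µM after dilution in diluent #9 (1X).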

H1975 = test: Tumor cell proliferation inhibition (CellTiter-Meiluncell Luminescent Cell Viability Assay); assay type: cell-based; settings: Homo sapiens, 96 hours, Table I-3, EGFR inhibitors
How it was run: (§9)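 Luminescent viability read-out (CellTiter-Meiluncell) after compound exposure for a specified time; IC50 determined. Seeding was done the day before dosing with serially diluted compound, final concentrations including 500 nM and 10 nM. Culture at 37°C, 5% CO2.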

BCR-ABL = target: T2, BCR-ABL (Homo sapiens, UniProt P00519+P11274+Q96SW2, E27K); test: Western blot, target protein degradation in K562 Cell; assay type: cell-based; settings: substrate protein remaining %, treated at 500 nM and 50 nM, 24 hours
T2 construct: endogenous in cells; host or cells: K562
Experimental: as §1, §2, §3, §4, §5, §6, §7

MM.1S = test: Tumor cell proliferation inhibition (CellTiter-Meiluncell Luminescent Cell Viability Assay); assay type: cell-based; settings: Homo sapiens, MM1.S, MM.1S, 96 hours, Table I-10, BCR-ABL inhibitors
How it was run: as §8

SW620 = test: as above; assay type: cell-based; settings: Homo sapiens, 96 hours, Table I-4, BTK inhibitors; for inhibition at 0.01 µM: SW-620, 10 nM, read-out: Inhibition Rate at 10 nM (%); for inhibition at 0.5 µM: SW-620, 500 nM, read-out: Inhibition Rate at 500 nM (%)
How it was run: as §8

TMD8 = test: as above; assay type: cell-based; settings: Homo sapiens, 96 hours, Table I-4, BTK inhibitors; for inhibition at 0.01 µM: 10 nM, read-out: Inhibition Rate at 10 nM (%); for inhibition at 0.5 µM: 500 nM, read-out: Inhibition Rate at 500 nM (%)
How it was run: as §9

T1 sequence (Q96SW2 whole entry): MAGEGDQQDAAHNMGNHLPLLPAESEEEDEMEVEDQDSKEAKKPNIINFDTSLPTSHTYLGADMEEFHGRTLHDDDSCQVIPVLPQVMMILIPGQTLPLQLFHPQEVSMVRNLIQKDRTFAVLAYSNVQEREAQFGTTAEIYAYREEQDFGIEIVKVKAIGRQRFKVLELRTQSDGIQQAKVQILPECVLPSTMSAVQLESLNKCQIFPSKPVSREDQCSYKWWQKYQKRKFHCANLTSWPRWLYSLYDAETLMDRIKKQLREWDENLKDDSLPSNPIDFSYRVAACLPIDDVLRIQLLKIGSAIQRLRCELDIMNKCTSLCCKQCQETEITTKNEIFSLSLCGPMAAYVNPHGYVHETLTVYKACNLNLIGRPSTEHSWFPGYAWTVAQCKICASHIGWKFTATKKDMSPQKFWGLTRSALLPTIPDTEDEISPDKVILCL
T2 sequence (P11274+P00519 fused, stated change not applied): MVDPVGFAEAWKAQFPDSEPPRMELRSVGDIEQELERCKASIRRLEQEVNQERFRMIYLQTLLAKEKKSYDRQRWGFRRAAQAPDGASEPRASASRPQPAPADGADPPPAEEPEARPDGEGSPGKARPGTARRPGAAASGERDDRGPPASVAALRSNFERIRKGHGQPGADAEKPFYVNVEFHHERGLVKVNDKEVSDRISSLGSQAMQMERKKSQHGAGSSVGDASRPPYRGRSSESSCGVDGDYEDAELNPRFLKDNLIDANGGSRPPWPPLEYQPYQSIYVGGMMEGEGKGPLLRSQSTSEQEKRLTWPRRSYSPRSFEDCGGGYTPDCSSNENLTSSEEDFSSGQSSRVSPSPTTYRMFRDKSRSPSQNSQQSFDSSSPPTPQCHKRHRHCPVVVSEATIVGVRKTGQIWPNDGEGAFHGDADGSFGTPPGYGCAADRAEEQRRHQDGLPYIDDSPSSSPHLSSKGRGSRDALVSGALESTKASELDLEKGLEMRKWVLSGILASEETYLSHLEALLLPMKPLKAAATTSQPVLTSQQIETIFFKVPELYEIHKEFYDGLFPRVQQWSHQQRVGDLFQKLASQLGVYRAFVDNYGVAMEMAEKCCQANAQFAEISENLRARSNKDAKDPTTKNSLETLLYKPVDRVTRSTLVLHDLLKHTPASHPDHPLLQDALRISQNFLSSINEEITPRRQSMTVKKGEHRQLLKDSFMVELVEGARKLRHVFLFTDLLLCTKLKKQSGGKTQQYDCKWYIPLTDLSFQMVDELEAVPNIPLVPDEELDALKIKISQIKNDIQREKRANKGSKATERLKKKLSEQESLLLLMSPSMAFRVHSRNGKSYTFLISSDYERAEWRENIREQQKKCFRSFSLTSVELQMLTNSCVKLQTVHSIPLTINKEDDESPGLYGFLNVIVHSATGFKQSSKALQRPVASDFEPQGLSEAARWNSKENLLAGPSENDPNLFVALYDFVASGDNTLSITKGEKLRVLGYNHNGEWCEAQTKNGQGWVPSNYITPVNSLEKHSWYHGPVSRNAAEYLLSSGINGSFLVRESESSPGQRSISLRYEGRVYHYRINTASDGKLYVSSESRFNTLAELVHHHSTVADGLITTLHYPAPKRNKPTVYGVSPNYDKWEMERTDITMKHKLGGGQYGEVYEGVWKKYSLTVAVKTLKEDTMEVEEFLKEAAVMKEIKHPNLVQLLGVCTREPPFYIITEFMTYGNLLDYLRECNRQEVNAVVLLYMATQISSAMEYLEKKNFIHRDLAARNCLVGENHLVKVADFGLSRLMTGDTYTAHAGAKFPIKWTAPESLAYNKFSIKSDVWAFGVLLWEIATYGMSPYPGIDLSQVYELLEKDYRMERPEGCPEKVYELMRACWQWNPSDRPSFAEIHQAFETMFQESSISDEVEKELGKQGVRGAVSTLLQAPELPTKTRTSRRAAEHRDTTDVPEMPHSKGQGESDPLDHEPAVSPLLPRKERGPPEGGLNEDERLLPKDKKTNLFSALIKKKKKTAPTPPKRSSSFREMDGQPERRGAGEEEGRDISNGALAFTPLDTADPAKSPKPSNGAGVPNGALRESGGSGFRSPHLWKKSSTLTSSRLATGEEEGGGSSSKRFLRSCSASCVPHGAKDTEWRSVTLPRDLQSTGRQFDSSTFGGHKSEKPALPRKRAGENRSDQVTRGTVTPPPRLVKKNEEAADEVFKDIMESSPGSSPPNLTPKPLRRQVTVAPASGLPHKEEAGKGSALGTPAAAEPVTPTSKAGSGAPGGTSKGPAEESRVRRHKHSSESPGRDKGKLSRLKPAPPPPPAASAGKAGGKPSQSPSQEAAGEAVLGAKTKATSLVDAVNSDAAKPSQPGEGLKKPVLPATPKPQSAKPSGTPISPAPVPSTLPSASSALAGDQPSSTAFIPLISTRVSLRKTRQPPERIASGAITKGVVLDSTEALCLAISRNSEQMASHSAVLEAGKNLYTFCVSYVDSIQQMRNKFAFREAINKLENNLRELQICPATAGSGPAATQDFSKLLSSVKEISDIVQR
T2 sequence (Q96SW2 whole entry, stated change not applied): as the sequence (Q96SW2 whole entry) above
T2 sequence (Q16531 whole entry partner): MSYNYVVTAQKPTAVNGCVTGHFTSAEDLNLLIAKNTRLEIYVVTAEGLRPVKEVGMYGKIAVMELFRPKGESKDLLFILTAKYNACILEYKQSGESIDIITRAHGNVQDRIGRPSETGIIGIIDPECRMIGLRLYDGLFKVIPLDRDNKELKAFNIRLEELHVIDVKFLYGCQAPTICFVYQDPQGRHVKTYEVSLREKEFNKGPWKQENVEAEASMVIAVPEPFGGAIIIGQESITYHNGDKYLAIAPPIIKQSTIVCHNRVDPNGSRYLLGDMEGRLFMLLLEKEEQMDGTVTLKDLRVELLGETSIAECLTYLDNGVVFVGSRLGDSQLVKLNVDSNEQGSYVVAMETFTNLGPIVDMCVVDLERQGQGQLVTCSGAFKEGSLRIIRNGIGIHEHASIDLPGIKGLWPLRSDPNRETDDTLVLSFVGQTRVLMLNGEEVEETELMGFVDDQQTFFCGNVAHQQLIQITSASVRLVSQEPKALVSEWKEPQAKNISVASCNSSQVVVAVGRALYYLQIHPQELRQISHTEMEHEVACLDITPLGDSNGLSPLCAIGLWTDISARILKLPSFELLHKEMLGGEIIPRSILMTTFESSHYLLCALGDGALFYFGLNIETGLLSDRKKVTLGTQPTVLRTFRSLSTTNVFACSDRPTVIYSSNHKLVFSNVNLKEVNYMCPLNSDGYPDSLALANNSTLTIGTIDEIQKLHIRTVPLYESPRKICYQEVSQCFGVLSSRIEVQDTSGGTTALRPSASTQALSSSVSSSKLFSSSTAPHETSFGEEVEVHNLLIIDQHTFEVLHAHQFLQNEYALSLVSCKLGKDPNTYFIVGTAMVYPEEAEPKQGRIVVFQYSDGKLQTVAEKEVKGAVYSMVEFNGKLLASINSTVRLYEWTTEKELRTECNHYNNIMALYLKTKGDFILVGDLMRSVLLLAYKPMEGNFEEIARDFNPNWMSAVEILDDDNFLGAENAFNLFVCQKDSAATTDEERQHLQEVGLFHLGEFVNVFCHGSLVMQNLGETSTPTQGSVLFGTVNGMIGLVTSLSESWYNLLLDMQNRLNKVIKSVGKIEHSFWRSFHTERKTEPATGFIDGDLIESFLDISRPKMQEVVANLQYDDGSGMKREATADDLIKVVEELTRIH

- inhibition at 0.5 µM [1]: 60 to 80%
- inhibition at 2 µM [1]: 80 to 100%
Structure (SMILES): COc1cc(N2CCC(N3CCN(Cc4ccc5c(c4)C(=S)N(C4CCC(=O)NC4=O)C5)CC3)CC2)c(C)cc1Nc1ncc(Br)c(Nc2ccc3nccnc3c2P(C)(C)=O)n1 (centres unmarked) [GT-08762, 3-(6-((4-(1-(4-((5-bromo-4-((5-(dimethylphosphoryl)quinoxalin-6-yl)amino)pyrimidin-2-yl)amino)-5-methoxy-2-methylphenyl)piperidin-4-yl)piperazin-1-yl)methyl)-1-thioxoisoindolin-2-yl)piperidine-2,6-dione]
- Degradation of substrate protein EGFR (EGFR): A (0% ≤ substrate protein remaining % ≤ 80%)
- inhibition at 0.01 µM (RPMI-8226; Table I-3, EGFR inhibitors): 30 to 40%
- inhibition at 0.5 µM (RPMI-8226; Table I-3, EGFR inhibitors): 40 to 50%
- inhibition at 0.01 µM (MV-4-11; Table I-3, EGFR inhibitors): 30 to 40%
- inhibition at 0.5 µM (MV-4-11; Table I-3, EGFR inhibitors): 80 to 100%

- inhibition at 0.5 µM [1]: 30 to 40%
- inhibition at 2 µM [1]: 80 to 100%
Structure (SMILES): COC1CCN(c2nccc(Nc3cc4c(cn3)c(N3CCN(Cc5ccc6c(c5)C(=S)N(C5CCC(=O)NC5=O)C6)CC3)nn4C(C)C)n2)CC1 (centres unmarked) [GT-08763, 3-(6-((4-(1-isopropyl-6-((2-(4-methoxypiperidin-1-yl)pyrimidin-4-yl)amino)-1H-pyrazolo[4,3-c]pyridin-3-yl)piperazin-1-yl)methyl)-1-thioxoisoindolin-2-yl)piperidine-2,6-dione]
- Degradation of substrate protein EGFR (EGFR): A (0% ≤ substrate protein remaining % ≤ 80%)
- inhibition at 0.01 µM (RPMI-8226; Table I-3, EGFR inhibitors): 30 to 40%
- inhibition at 0.5 µM (RPMI-8226; Table I-3, EGFR inhibitors): 50 to 60%
- inhibition at 0.01 µM (MV-4-11; Table I-3, EGFR inhibitors): 30 to 40%
- inhibition at 0.5 µM (MV-4-11; Table I-3, EGFR inhibitors): 50 to 60%

- inhibition at 0.5 µM [1]: 60 to 80%
- inhibition at 2 µM [1]: 60 to 80%
Structure (SMILES): O=C1CCC(N2Cc3ccc(CN4C[C@H]5C[C@@H]4CN5c4ccc(-c5cc(F)c6c(c5)C(=O)N(C(C(=O)Nc5nccs5)c5ncn7c5CCC7)C6)cc4)cc3C2=S)C(=O)N1 (stereo partly drawn) [GT-08764, 2-(6,7-dihydro-5H-pyrrolo[1,2-c]imidazol-1-yl)-2-(6-(4-((1R,4R)-5-((2-(2,6-dioxopiperidin-3-yl)-3-thioxoisoindolin-5-yl)methyl)-2,5-diazabicyclo[2.2.1]heptan-2-yl)phenyl)-4-fluoro-1-oxoisoindolin-2-yl)-N-(thiazol-2-yl)acetamide]
- Degradation of substrate protein EGFR (EGFR): A (0% ≤ substrate protein remaining % ≤ 80%)
- inhibition at 0.01 µM (H1975; NCI-H1975, 10 nM, read-out: Inhibition Rate at 10 nM (%)): 20 to 30%
- inhibition at 0.5 µM (H1975; NCI-H1975, 500 nM, read-out: Inhibition Rate at 500 nM (%)): 50 to 60%

- inhibition at 0.5 µM [1]: 20 to 30%
- inhibition at 2 µM [1]: 60 to 80%
Structure (SMILES): O=C1CCC(N2Cc3cc(CN4CCN(C5CCN(c6ncc(C(=O)Nc7ccc(OC(F)(F)Cl)cc7)cc6-c6cc[nH]n6)CC5)CC4)ccc3C2=S)C(=O)N1 (centres unmarked) [GT-08770, N-(4-(chlorodifluoromethoxy)phenyl)-6-(4-(4-((2-(2,6-dioxopiperidin-3-yl)-1-thioxoisoindolin-5-yl)methyl)piperazin-1-yl)piperidin-1-yl)-5-(1H-pyrazol-3-yl)nicotinamide]
- inhibition at 0.01 µM (RPMI-8226; Table I-10, BCR-ABL inhibitors): 10 to 20%
- inhibition at 0.5 µM (RPMI-8226; Table I-10, BCR-ABL inhibitors): 40 to 50%
- inhibition at 0.01 µM (MM.1S; 10 nM, read-out: Inhibition Rate at 10 nM (%)): 5 to 10%
- inhibition at 0.5 µM (MM.1S; 500 nM, read-out: Inhibition Rate at 500 nM (%)): 30 to 40%
- Degradation of substrate protein BCR-ABL (BCR-ABL): A (0% ≤ substrate protein remaining % ≤ 80%)

- inhibition at 0.5 µM [1]: 40 to 53%
- inhibition at 2 µM [1]: 60 to 80%
Structure (SMILES): O=C1CCC(N2Cc3c(CN4CCN(C5CCN(c6ncc(C(=O)Nc7ccc(OC(F)(F)Cl)cc7)cc6-c6cc[nH]n6)CC5)CC4)cccc3C2=S)C(=O)N1 (centres unmarked) [GT-08776, N-(4-(chlorodifluoromethoxy)phenyl)-6-(4-(4-((2-(2,6-dioxopiperidin-3-yl)-1-thioxoisoindolin-4-yl)methyl)piperazin-1-yl)piperidin-1-yl)-5-(1H-pyrazol-3-yl)nicotinamide]
- Degradation of substrate protein BCR-ABL (BCR-ABL): A (0% ≤ substrate protein remaining % ≤ 80%)

- inhibition at 0.5 µM [1]: 40 to 53%
- inhibition at 2 µM [1]: 80 to 100%
Structure (SMILES): Nc1ncnc2c1c(-c1ccc(Oc3ccccc3)cc1)nn2C1CCN(Cc2ccc3c(c2)CN(C2CCC(=O)NC2=O)C3=S)CC1 (centres unmarked) [GT-09436, 3-(5-((4-(4-amino-3-(4-phenoxyphenyl)-1H-pyrazolo[3,4-d]pyrimidin-1-yl)piperidin-1-yl)methyl)-1-thioxoisoindolin-2-yl)piperidine-2,6-dione]
- inhibition at 0.01 µM (SW620): 70 to 80%
- inhibition at 0.5 µM (SW620): 80 to 100%
- inhibition at 0.01 µM (TMD8): 15 to 20%
- inhibition at 0.5 µM (TMD8): 80 to 100%

The remaining lines, values behind:

Structure (SMILES): COc1cc(N2CCC(N(C)Cc3ccc4c(c3)C(=S)N(C3CCC(=O)NC3=O)C4)CC2)c(C)cc1Nc1ncc(Br)c(Nc2ccc3nccnc3c2P(C)(C)=O)n1 (centres unmarked) [GT-08761, 3-(6-(((1-(4-((5-bromo-4-((5-(dimethylphosphoryl)quinoxalin-6-yl)amino)pyrimidin-2-yl)amino)-5-methoxy-2-methylphenyl)piperidin-4-yl)(methyl)amino)methyl)-1-thioxoisoindolin-2-yl)piperidine-2,6-dione]
- Degradation of substrate protein EGFR (EGFR): A (0% ≤ substrate protein remaining % ≤ 80%)
- inhibition at 0.01 µM (RPMI-8226; Table I-3, EGFR inhibitors): 20 to 30%
- inhibition at 0.5 µM (RPMI-8226; Table I-3, EGFR inhibitors): 40 to 50%
- inhibition at 0.01 µM (MV-4-11; Table I-3, EGFR inhibitors): 5 to 10%
- inhibition at 0.5 µM (MV-4-11; Table I-3, EGFR inhibitors): 60 to 70%
- inhibition at 0.5 µM [1]: 60 to 80%
- inhibition at 2 µM [1]: 80 to 100%

Structure (SMILES): Cc1ccc(C(=O)Nc2ccc(N3CCN(Cc4ccc5c(c4)CN(C4CCC(=O)NC4=O)C5=S)CC3)c(C(F)(F)F)c2)cc1C#Cc1cnc2cccnn12 (centres unmarked) [GT-08768, N-(4-(4-((2-(2,6-dioxopiperidin-3-yl)-1-thioxoisoindolin-5-yl)methyl)piperazin-1-yl)-3-(trifluoromethyl)phenyl)-3-(imidazo[1,2-b]pyridazin-3-ylethynyl)-4-methylbenzamide]
- Degradation of substrate protein BCR-ABL (BCR-ABL): A (0% ≤ substrate protein remaining % ≤ 80%)

Structure (SMILES): Cc1ccc(C(=O)Nc2ccc(N3CCN(Cc4cccc5c4CN(C4CCC(=O)NC4=O)C5=S)CC3)c(C(F)(F)F)c2)cc1C#Cc1cnc2cccnn12 (centres unmarked) [GT-08774, N-(4-(4-((2-(2,6-dioxopiperidin-3-yl)-1-thioxoisoindolin-4-yl)methyl)piperazin-1-yl)-3-(trifluoromethyl)phenyl)-3-(imidazo[1,2-b]pyridazin-3-ylethynyl)-4-methylbenzamide]
- inhibition at 0.01 µM (MV-4-11; Table I-10, BCR-ABL inhibitors): 20 to 30%
- inhibition at 0.5 µM (MV-4-11; Table I-10, BCR-ABL inhibitors): 70 to 80%
- Degradation of substrate protein BCR-ABL (BCR-ABL): A (0% ≤ substrate protein remaining % ≤ 80%)

Structure (SMILES): C=CC(=O)Nc1cc(Nc2nccc(-c3cn(C)c4ccccc34)n2)c(OC)cc1N(C)CCN(C)C [Osimertinib, reference compound]
- Degradation of substrate protein EGFR (EGFR): No degradation

Structure (SMILES): C=CC(=O)N1CCC[C@@H](n2nc(-c3ccc(Oc4ccccc4)cc3)c3c(N)ncnc32)C1 [ibrutinib, Ibrutinib, reference compound]
- inhibition at 0.01 µM (SW620): -5 to 0%
- inhibition at 0.5 µM (SW620): 0 to 5%
- inhibition at 0.01 µM (TMD8): -5 to 0%
- inhibition at 0.5 µM (TMD8): 30 to 40%
- inhibition at 0.5 µM [1]: 0 to 10%
- inhibition at 2 µM [1]: 10 to 20%
